Calls of active or inactive are those of the source. The rule behind the calls is not given here.
Assays:
[1] = target: T1, Histone deacetylase 8 (Homo sapiens, UniProt Q9BY41); test: Inhibition of human recombinant HDAC8 using [RHKK(Ac)] fluorogenic substrate
T1 sequence (Q9BY41 whole entry): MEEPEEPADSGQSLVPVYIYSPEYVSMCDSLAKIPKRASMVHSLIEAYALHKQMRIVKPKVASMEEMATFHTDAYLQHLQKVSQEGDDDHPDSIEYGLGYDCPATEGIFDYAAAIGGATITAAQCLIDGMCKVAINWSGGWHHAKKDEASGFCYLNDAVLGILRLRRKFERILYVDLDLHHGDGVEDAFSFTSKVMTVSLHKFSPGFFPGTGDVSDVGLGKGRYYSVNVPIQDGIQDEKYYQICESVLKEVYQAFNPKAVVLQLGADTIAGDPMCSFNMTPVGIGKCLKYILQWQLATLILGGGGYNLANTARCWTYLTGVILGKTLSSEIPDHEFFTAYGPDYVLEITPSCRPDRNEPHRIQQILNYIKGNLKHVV

[2] = system: U-87 MG; test: Antitumor activity in TMZ-resistant human U-87 MG cells transplanted in BALB/C mouse assessed as increase in mouse survival at 10 mg/kg, ip measured for every 2 days measured for 40 days; assay type: functional, organism-based; settings: U-87MG ATCC, time 40.0 day
[3] = system: Glioblastoma cell line; test: Cytotoxicity against human glioblastoma cell P1S cells assessed as reduction in cell viability upto 30 uM by MTT assay; assay type: functional, cell-based; settings: dose microM <=30, time hrs <=72, TDE = time-dependent effect
[4] = system: A 172; test: Cytotoxicity against human A 172 cells assessed as reduction in cell viability upto 72 hrs by MTT assay; assay type: functional, cell-based; settings: dose microM <=30, time hrs <=72
[5] = system: Glioblastoma cell line; test: Cytotoxicity against TMZ-resistant human glioblastoma cell P5 cells assessed as reduction in cell viability upto 30 uM by MTT assay; assay type: functional, cell-based; settings: dose microM <=30, time hrs <=72, TDE = time-dependent effect
[6] = system: A 172; test: Induction of apoptosis in human A 172 cells assessed as upregulation of activated caspase 3 protein at 3 uM after 24 hrs by western blot analysis; assay type: functional, cell-based
[7] = system: Glioblastoma cell line; test: Cytotoxicity against human glioblastoma cell P5 cells assessed as reduction in cell viability upto 30 uM by MTT assay; assay type: functional, cell-based; settings: dose microM <=30, time hrs <=72, TDE = time-dependent effect
[8] = system: A 172; test: Cytotoxicity against human A 172 cells assessed as reduction in cell viability upto 30 uM by MTT assay; assay type: functional, cell-based; settings: dose microM <=30, time hrs <=72, TDE = time-dependent effect
[9] = system: Glioblastoma cell line; test: Cytotoxicity against human glioblastoma cell P5 cells assessed as reduction in cell viability upto 72 hrs by MTT assay; assay type: functional, cell-based; settings: dose microM <=30, time hrs <=72
[10] = system: A 172; test: Induction of cell cycle arrest in human A 172 cells assessed as increase in histone H3-S10 dephosphorylation upto 10 uM for 24 hrs by Western blot analysis; assay type: functional, cell-based; settings: dose microM <=10, time 24.0 hrs
[11] = system: Glioblastoma cell line; test: Cytotoxicity against TMZ-resistant human glioblastoma cell P5 cells assessed as reduction in cell viability upto 72 hrs by MTT assay; assay type: functional, cell-based; settings: dose microM <=30, time hrs <=72
[12] = system: A 172; test: Induction of cell cycle arrest in human A 172 cells assessed as sub-G1 population upto 10 uM after 2 days by flow cytometry/PI staining assay; assay type: functional, cell-based; settings: dose microM <=10, time 2.0 day
[13] = system: Glioblastoma cell line; test: Antiproliferation activity against TMZ resistant human glioblastoma cell P1S assessed as growth inhibition at 3 uM by MTT assay; assay type: functional
[14] = system: U-87 MG; test: Antiproliferation activity against TMZ resistant human U-87 MG R-50 cells assessed as growth inhibition at 3 uM by MTT assay; assay type: functional, cell-based; settings: U-87MG ATCC
[15] = system: A 172; test: Induction of cell cycle arrest in human A 172 cells assessed as increase in histone alpha-tubulin-K40 acetylation upto 10 uM for 24 hrs by Western blot analysis; assay type: functional, cell-based; settings: dose microM <=10, time 24.0 hrs
[16] = system: U-87 MG; test: Cytotoxicity against TMZ-resistant human U-87 MG cells assessed as reduction in cell viability upto 72 hrs by MTT assay; assay type: functional, cell-based; settings: U-87MG ATCC, dose microM <=30, time hrs <=72
[17] = system: A 172; test: Induction of cell cycle arrest in human A 172 cells assessed as increase in histone H3-K9/K14 acetylation upto 10 uM for 24 hrs by Western blot analysis; assay type: functional, cell-based; settings: dose microM <=10, time 24.0 hrs
[18] = system: Glioblastoma cell line; test: Cytotoxicity against TMZ-resistant human glioblastoma cell P3 cells assessed as reduction in cell viability upto 30 uM by MTT assay; assay type: functional, cell-based; settings: dose microM <=30, time hrs <=72, TDE = time-dependent effect
[19] = system: A 172; test: Induction of cell cycle arrest in human A 172 cells assessed as accumulation at G2/M phase by propidium iodide staining based flow cytometric analysis; assay type: functional; settings: dose microM <=10
[20] = system: Glioblastoma cell line; test: Cytotoxicity against human glioblastoma cell P3 cells assessed as reduction in cell viability upto 30 uM by MTT assay; assay type: functional, cell-based; settings: dose microM <=30, time hrs <=72, TDE = time-dependent effect
[21] = system: Glioblastoma cell line; test: Cytotoxicity against human glioblastoma cell P1S cells assessed as reduction in cell viability upto 72 hrs by MTT assay; assay type: functional, cell-based; settings: dose microM <=30, time hrs <=72
[22] = system: A 172; test: Downregulation of PCNA expression in human A 172 cells upto 10 uM measured after 24 hrs by Western blot analysis; assay type: functional, cell-based; settings: dose microM <=10, time 24.0 hrs
[23] = system: U-87 MG; test: Antiproliferation activity against human U-87 MG cells assessed as growth inhibition measured after 1 hr by MTT assay; assay type: functional, cell-based, U-87MG ATCC
[24] = system: A 172; test: Cytotoxicity against TMZ-resistant human A 172 cells assessed as reduction in cell viability upto 72 hrs by MTT assay; assay type: functional, cell-based; settings: dose microM <=30, time hrs <=72
[25] = system: A 172; test: Induction of cell cycle arrest in human A 172 cells assessed as accumulation at G0/G1 phase by propidium iodide staining based flow cytometric analysis; assay type: functional; settings: dose microM <=10
[26] = system: Glioblastoma cell line; test: Cytotoxicity against TMZ-resistant human glioblastoma cell P3 cells assessed as reduction in cell viability upto 72 hrs by MTT assay; assay type: functional, cell-based; settings: dose microM <=30, time hrs <=72
[27] = system: A 172; test: Cytotoxicity against TMZ-resistant human A 172 cells assessed as reduction in cell viability upto 30 uM by MTT assay; assay type: functional, cell-based; settings: dose microM <=30, time hrs <=72, TDE = time-dependent effect
[28] = target: Histone deacetylase 1 (Homo sapiens, UniProt Q13547); test: Inhibition of human recombinant HDAC1 expressed in baculovirus infected insect cells using [RHKK(Ac)] fluorogenic substrate
[29] = Permeability of compound by PAMPA-BBB assay
[30] = target: Histone deacetylase 3 (Homo sapiens, UniProt O15379); test: Inhibition of human recombinant HDAC3 using [RHKK(Ac)] fluorogenic substrate
[31] = system: U-87 MG; test: Cytotoxicity against human U-87 MG cells assessed as reduction in cell viability upto 30 uM by MTT assay; assay type: functional, cell-based; settings: U-87MG ATCC, dose microM <=30, time hrs <=72, TDE = time-dependent effect
[32] = system: A 172; test: Effect on cyclin B1 expression in human A 172 cells upto 10 uM after 24 hrs by Western blot analysis; assay type: functional, cell-based; settings: dose microM <=10, time 24.0 hrs
[33] = system: A 172; test: Induction of apoptosis in human A 172 cells assessed as upregulation of cleaved PARP at 3 uM after 24 hrs by western blot analysis; assay type: functional, cell-based
[34] = target: Cyclin-dependent kinase 1/cyclin B1 (Homo sapiens) (UniProt P06493+P14635); test: Inhibition of CDK1/Cyclin B interaction in human A 172 cells assessed as CDK1 acetylation at 3 uM for 24 hrs by Western blot analysis; assay type: cell-based
[35] = system: Glioblastoma cell line; test: Cytotoxicity against human glioblastoma cell P3 cells assessed as reduction in cell viability upto 72 hrs by MTT assay; assay type: functional, cell-based; settings: dose microM <=30, time hrs <=72
[36] = system: A 172; test: Induction of cell cycle arrest in human A172 cells assessed as accumulation at G1/S phase measured by increase in cyclin E expression upto 10 uM after 24 hrs by Western blot analysis; assay type: functional, cell-based; settings: dose microM <=10, time 24.0 hrs

Sequence of Cyclin-dependent kinase 1/cyclin B1 (Homo sapiens) (P06493 whole entry, looked up): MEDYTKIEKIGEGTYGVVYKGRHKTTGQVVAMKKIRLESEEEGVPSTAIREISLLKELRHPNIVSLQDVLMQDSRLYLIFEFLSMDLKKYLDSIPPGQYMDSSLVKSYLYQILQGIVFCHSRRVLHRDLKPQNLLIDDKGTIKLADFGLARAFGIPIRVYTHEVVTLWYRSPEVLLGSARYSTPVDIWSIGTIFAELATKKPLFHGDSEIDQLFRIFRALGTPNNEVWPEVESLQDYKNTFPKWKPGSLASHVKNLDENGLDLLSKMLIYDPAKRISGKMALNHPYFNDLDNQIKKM
Sequence of Cyclin-dependent kinase 1/cyclin B1 (Homo sapiens) (P14635 whole entry, looked up): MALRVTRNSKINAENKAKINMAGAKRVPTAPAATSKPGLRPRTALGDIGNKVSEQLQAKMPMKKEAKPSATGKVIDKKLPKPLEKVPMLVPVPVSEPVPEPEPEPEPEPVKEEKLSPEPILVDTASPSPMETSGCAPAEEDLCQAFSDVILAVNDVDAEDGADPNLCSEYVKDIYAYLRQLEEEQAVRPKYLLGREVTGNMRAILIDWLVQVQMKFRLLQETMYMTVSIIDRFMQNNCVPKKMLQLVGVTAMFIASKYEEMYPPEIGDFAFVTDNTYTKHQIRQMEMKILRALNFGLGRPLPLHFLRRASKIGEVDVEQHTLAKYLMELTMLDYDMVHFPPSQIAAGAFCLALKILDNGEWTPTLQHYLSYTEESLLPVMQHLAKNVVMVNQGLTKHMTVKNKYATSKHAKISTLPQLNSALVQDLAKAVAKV
Sequence of Histone deacetylase 3 (O15379 whole entry): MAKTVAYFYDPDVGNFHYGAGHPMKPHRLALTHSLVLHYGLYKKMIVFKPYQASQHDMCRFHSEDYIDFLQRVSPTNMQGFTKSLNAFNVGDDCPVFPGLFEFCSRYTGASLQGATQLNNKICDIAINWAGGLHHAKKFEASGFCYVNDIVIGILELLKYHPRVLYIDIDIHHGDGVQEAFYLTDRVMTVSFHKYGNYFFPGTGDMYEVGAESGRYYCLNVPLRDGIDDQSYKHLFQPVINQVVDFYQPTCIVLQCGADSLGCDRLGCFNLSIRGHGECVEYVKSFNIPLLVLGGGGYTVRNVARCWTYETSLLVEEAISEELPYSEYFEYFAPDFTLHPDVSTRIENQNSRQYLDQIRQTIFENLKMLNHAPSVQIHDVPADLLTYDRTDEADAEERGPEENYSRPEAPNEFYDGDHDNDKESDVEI
Sequence of Histone deacetylase 1 (Q13547 whole entry): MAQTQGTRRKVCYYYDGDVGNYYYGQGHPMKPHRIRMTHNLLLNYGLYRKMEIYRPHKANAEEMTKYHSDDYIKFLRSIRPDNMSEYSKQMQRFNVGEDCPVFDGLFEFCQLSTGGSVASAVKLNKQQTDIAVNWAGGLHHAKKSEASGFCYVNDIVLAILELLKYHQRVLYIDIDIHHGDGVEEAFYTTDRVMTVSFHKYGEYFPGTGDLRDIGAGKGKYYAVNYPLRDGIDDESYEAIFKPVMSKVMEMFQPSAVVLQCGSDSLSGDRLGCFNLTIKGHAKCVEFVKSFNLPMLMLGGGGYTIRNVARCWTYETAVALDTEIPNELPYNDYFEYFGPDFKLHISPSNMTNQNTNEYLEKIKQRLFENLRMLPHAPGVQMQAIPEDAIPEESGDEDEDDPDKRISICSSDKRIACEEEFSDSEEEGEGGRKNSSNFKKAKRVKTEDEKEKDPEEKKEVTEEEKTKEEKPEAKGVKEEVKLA

SMILES: CC12CC3CC(C)(C1)CC(NCc1ccc(NC(=O)CCCCCCC(=O)NO)cc1)(C3)C2
- IC50 [1]: 638 nM
- Activity [2]: Active
- Activity [3]: Tde
- Activity [4]: Dose-Dependent Effect
- Activity [5]: Tde
- Activity [6]: Active
- Activity [7]: Tde
- Activity [8]: Tde
- Activity [9]: Dose-Dependent Effect
- Activity [10]: Active
- Activity [11]: Dose-Dependent Effect
- Activity [12]: Active
- Activity [13]: inactive
- Activity [14]: inactive
- Activity [15]: Active
- Activity [16]: Dose-Dependent Effect
- Activity [17]: Active
- Activity [18]: Tde
- Activity [19]: Dose-Dependent Effect
- Activity [20]: Tde
- Activity [21]: Dose-Dependent Effect
- Activity [22]: inactive
- IC50 [23]: 2950 nM
- Activity [24]: Dose-Dependent Effect
- Activity [25]: Dose-Dependent Effect
- Activity [26]: Dose-Dependent Effect
- Activity [27]: Tde
- IC50 [28]: 347 nM
- Papp [29]: 339 ×10⁻⁶ cm/s
- IC50 [30]: 806 nM
- Activity [31]: Tde
- Activity [32]: inactive
- Activity [33]: Active
- Activity [34]: Active
- Activity [35]: Dose-Dependent Effect
- Activity [36]: Active

Reference: ChEMBL document CHEMBL4814005, “Pragmatic recruitment of memantine as the capping group for the design of HDAC inhibitors: A preliminary attempt to unravel the enigma of glioblastoma” (Eur J Med Chem, 2021)
